Among the data in PMC6981391, “The Selective Class IIa Histone Deacetylase Inhibitor TMP195 Resensitizes ABCB1- and ABCG2-Overexpressing Multidrug-Resistant Cancer Cells to Cytotoxic Anticancer Drugs” (International Journal of Molecular Sciences, 2019) are EC50 values, retold here.

The term EC50 denotes the midpoint of the concentration-response curve.

The target of one experiment is T1, ABCB1 (Homo sapiens, UniProt P08183).
T1 construct: membrane vesicles from High-Five insect cells infected with recombinant baculovirus containing ABCB1
Description: stimulation of vanadate-sensitive ATPase activity in membrane vesicles (endpoint Pi assay); also inhibits calcein-AM efflux in MDR19-HEK293 and KB-V-1 cells. The experiment is classed as biochemical.

A further experiment concerns the target T2, ABCG2 (Homo sapiens, UniProt Q9UNQ0).
T2 sequence (Q9UNQ0 1-655): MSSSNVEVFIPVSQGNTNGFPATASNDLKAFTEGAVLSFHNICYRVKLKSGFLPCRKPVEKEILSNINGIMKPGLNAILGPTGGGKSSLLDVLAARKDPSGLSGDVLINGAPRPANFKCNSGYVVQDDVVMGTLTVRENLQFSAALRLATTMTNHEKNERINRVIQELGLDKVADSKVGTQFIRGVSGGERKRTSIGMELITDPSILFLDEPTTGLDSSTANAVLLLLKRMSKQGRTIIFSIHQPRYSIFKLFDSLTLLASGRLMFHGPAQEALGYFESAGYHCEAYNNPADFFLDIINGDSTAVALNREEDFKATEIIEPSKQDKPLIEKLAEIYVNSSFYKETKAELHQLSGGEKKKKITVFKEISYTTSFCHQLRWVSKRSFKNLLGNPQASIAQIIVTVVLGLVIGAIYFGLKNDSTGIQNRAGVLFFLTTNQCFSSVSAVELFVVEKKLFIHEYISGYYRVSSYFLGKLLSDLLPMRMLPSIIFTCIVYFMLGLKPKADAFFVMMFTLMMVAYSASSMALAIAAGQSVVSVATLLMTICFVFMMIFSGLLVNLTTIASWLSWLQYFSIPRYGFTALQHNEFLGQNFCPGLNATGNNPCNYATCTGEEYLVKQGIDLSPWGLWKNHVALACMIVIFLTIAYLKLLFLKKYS
Description: biochemical.

T1 sequence (P08183 whole entry): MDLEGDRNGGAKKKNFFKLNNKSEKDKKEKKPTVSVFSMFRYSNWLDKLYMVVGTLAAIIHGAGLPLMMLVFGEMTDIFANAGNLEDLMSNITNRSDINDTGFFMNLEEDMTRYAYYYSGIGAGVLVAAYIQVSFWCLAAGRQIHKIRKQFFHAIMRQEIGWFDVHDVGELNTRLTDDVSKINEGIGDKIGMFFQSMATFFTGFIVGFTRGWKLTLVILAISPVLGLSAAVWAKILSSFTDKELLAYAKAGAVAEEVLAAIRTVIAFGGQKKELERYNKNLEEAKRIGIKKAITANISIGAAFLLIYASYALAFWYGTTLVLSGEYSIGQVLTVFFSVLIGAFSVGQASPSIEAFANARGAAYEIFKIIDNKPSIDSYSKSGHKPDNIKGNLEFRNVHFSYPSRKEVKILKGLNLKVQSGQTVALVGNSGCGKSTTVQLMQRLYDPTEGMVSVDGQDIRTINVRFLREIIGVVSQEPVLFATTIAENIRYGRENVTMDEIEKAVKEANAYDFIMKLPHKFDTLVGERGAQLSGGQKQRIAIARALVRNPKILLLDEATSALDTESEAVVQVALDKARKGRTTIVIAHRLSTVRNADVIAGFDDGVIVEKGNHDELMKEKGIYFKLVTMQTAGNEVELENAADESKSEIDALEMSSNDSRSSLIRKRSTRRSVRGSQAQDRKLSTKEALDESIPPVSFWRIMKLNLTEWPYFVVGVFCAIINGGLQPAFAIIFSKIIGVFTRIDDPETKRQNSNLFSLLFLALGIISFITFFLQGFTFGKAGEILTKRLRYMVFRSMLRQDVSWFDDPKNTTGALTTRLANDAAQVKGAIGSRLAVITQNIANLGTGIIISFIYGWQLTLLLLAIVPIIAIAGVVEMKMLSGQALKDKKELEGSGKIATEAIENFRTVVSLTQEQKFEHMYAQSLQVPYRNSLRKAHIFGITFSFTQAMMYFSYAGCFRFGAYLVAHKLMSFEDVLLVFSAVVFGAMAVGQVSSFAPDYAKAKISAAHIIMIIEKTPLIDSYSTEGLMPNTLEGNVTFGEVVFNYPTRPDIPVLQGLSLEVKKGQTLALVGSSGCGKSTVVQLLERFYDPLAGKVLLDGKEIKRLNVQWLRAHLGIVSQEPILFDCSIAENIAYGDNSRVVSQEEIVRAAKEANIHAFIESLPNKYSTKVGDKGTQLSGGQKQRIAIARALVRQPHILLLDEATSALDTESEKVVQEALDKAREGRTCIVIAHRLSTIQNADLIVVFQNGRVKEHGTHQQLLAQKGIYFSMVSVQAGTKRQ

Consider `CC(C)(CNC(=O)c1cccc(-c2noc(C(F)(F)F)n2)c1)c1coc(-c2ccccc2)n1` [TMP195], for which the figures for the EC50 at ABCB1 and at ABCG2 were about 2 µM and about 0.4 µM, respectively.
